Reference: PubChem BioAssay (NCI)
Where “and” joins values, the source holds several entries; their conditions need not be identical. Identical values can stand only once.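 These data come from cells grown in 96-well plates and exposed to compound for 48 hours at five concentrations. The concentration for 50% growth inhibition is given as GI50. TGI: concentration producing complete growth inhibition.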

What was measured:
Assay in all cases: NCI tumour cell line growth inhibition, 48 h
LOX IMVI melanoma = tested on: LOX IMVI melanoma
P388/ADR leukemia = tested on: P388/ADR leukemia
P388 leukemia = tested on: P388 leukemia
KM20L2 colon = tested on: KM20L2 colon
DMS 114 small cell lung = tested on: DMS 114 small cell lung
DMS 273 small cell lung = tested on: DMS 273 small cell lung
786-0 renal = tested on: 786-0 renal
M14 melanoma = tested on: M14 melanoma
DU-145 prostate = tested on: DU-145 prostate
MDA-N = tested on: MDA-N
PC-3 prostate = tested on: PC-3 prostate
T-47D breast = tested on: T-47D breast
SR leukemia = tested on: SR leukemia
MCF7 breast = tested on: MCF7 breast

Row | Compound | TGI (LOX IMVI melanoma) [µM] | TGI (P388/ADR leukemia) [µM] | TGI (P388 leukemia) [µM] | TGI (KM20L2 colon) | TGI (DMS 114 small cell lung) [µM] | TGI (DMS 273 small cell lung) [µM] | TGI (786-0 renal) [µM] | TGI (M14 melanoma) [µM] | TGI (DU-145 prostate) [µM] | TGI (MDA-N) [µM] | TGI (PC-3 prostate) [µM] | TGI (T-47D breast) [µM] | TGI (SR leukemia) | TGI (MCF7 breast) [µM] | GI50 (PC-3 prostate) [µM] | GI50 (T-47D breast) [µM] | GI50 (SR leukemia) [µM] | GI50 (DU-145 prostate) [µM] | GI50 (MCF7 breast) [µM] | GI50 (M14 melanoma) [µM]
1 | O=c1c(-c2ccccc2)c[nH]c2cc([N+](=O)[O-])c(/C(Cl)=C/c3ccccc3)cc12 | > 22.5 | > 45.3 | > 31.6 | > 54.3 µM | 19 | > 38.7 |  |  |  |  |  |  |  |  |  |  |  |  |  | 
2 | C[Si](C)(C)C#C[I+]c1ccccc1 | 41.2 |  |  | > 100 µM | 39.7 | 44.5 | > 100 | 85.9 |  |  |  |  |  |  |  |  |  |  |  | 
3 | O=C(O)CCCN1CCCCC1 | > 100 |  |  |  |  |  | > 100 | > 100 | > 100 | > 100 | > 100 | > 100 | > 100 µM |  |  |  |  |  |  | 
4 | Cc1c2cc[n+](C)cc2c(C)c2c1[nH]c1ccc(O)cc12 | > 96.4 | > 77.4 | 38.7 | > 100 µM | 69.6 | > 78.6 |  | 20.5 | 74.7 | > 100 | > 100 | 11 |  | > 39.4 |  |  |  |  |  | 
5 | CN1CCN(c2ccc3nc(-c4ccc(OCCCN5C(=O)c6cccc7cccc(c67)C5=O)cc4)[nH]c3c2)CC1 |  |  |  |  |  |  |  |  |  |  | 4.95 | 34.3 | 5.94 µM |  | 2.04 | 4.8 | 2.69 |  |  | 
6 | CC(=O)O[C@H]1C(=O)[C@]2(C)[C@@H](OC(=O)OCC(O)CO)C[C@H]3OC[C@@]3(OC(C)=O)[C@H]2[C@H](OC(=O)c2ccccc2)[C@]2(O)C[C@H](OC(=O)[C@H](O)[C@@H](NC(=O)c3ccccc3)c3ccccc3)C(C)=C1C2(C)C (some centres not stated) | 25 |  |  |  |  |  |  |  |  |  | > 70.8 |  | 15.8 µM | > 39.7 |  |  |  |  |  | 
7 | COc1cc(-c2ccc(-c3ccc(C(=N)N)s3)s2)cc(OC)c1OC |  |  |  |  |  |  |  |  | 5.83 |  |  |  |  | 4.32 |  |  |  | 2.32 | 1.66 | 
8 | Cc1c2cc[n+](C)cc2c(COC2OC(CO)C(O)C2O)c2c3ccccc3n(C)c12 (configuration not stated) | > 100 | > 100 | > 100 | > 100 µM | > 100 | > 100 |  |  |  |  |  |  |  | > 100 |  |  |  |  |  | 
9 | NC(=O)c1cc2ccccc2c(N=Nc2ccccc2)c1O | > 100 |  |  |  |  |  | > 100 | > 100 | > 100 | > 100 | > 100 | > 100 | > 100 µM |  |  |  |  |  |  | 
10 | O=C(CCN1CCCC1)Nc1ccc2c(NCCCCc3ccccc3)c3ccccc3nc2c1 |  |  |  |  |  |  |  |  | 2.39 |  | 2.09 |  |  |  | 0.723 |  |  | 1.15 |  | 
11 | CCCCN(CCCC)CC(=O)c1ccc2cc(Cl)c3ccccc3c2c1 | > 100 |  |  |  |  |  | > 100 | > 100 | > 100 |  | > 100 | 76.6 | > 100 µM | 92.3 |  |  |  |  |  | 
12 | COc1cccc2c1C(=O)c1c(O)c3c(c(O)c1C2=O)C[C@@](O)(C(C)=O)C[C@@H]3OC1CC(N)C(O)C(C)O1 (some centres not stated) |  | 9.87 | 0.383 | 2.86 µM and 1.45 µM and > 5.01 µM |  |  |  |  |  |  |  |  | 0.239 µM and 0.908 µM |  |  | < 0.0176 |  |  |  | 0.0487
13 | CC(C)(C)CC(C)(C)Cc1ccc(OCCOCC[N+](C)(C)Cc2ccccc2)cc1 |  |  |  |  |  |  |  | 2.88 | 13.8 |  |  | 3.94 |  |  |  | 1.41 |  | 3.68 |  | 1.42
14 | CCC1=C(C)C2=NC1=CC1=NC(=C(CC)/C1=C/O)C=C1N=C3C(=C1C)C(=O)C(C(=O)OC)C3=C1NC(=C2)C(C)C1CCC(=O)OC (configuration not stated) | > 100 |  |  |  |  |  | > 100 | > 100 | > 100 | > 100 | > 100 | > 100 | > 100 µM | > 100 |  |  |  |  |  | 
15 | N#Cc1ccc(Nc2nc3nc[nH]c3c(=O)[nH]2)cc1 | > 100 |  |  |  |  |  | > 100 | > 100 | > 100 | > 100 | > 100 | > 100 | > 100 µM | > 100 |  |  |  |  |  | 
16 | Cc1cc(SCC(=O)c2ccc(Br)cc2)cc(C)[o+]1 | > 100 |  |  |  |  |  | > 100 | 79.1 | 68.9 | > 100 | > 100 | 48.8 | > 100 µM | 38.2 |  |  |  |  |  | 
